Measurements: article PMC5532286, “In silico, in vitro, X-ray crystallography, and integrated strategies for discovering spermidine synthase inhibitors for Chagas disease” (Scientific Reports, 2017)
Where two headings read alike, the source gives them in different places.

Experiments:
TcSpdSyn [1] = target: T1, TcSpdSyn (Trypanosoma cruzi, UniProt Q4DA73); experiment: biochemical; format: biochemical; conditions: for Hill (4PL curve fitting parameter) / Max (4PL curve fitting parameter, inhibition%) / min (4PL curve fitting parameter, inhibition%) / LoggedX50 (4PL curve fitting parameter): Supplementary Table 3; for LoggedX50 (4PL curve fitting parameter): Log10 of X50
T1 sequence (Q4DA73 entry or part of it): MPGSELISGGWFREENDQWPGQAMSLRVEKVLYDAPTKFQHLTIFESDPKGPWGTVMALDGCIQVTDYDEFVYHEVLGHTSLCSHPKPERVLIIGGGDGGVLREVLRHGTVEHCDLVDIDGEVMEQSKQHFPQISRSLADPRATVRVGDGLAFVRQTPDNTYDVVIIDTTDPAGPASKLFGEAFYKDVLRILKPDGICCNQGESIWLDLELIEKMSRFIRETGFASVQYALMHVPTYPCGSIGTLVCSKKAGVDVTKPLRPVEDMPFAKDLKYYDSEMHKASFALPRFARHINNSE
Protocol: To identify TcSpdSyn inhibitors, we performed an in vitro enzyme inhibition assay on 176 compounds sourced from the chemical compound library at Astellas Pharma.
The TcSpdSyn inhibition assay was performed essentially as previously[27] described. Briefly, the assay was an enzyme-coupled assay incorporating spermidine/spermine N(1)-acetyltransferase 1 (SSAT1). 7-Diethylamino-3-(4-maleimidylphenyl)-4-methylcoumarin (CPM) (cat. D-346, Thermo Fischer Scientific) was used to measure the coenzyme A produced by the SSAT1 reaction. […] The fluorescence signal was then detected in a plate reader (Paradigm, Molecular Devices Inc.) with excitation at 405 nm and emission at 530 nm. Each IC50 value was measured using eight different concentrations in quadruplicate. […] Compounds 1, 3, and 4 were used in their salt forms, whereas compound 2 was used in its free form. The corresponding salts were oxalic acid for compound 1 and HCl for compounds 3 and 4. These compounds were dissolved in dimethyl sulfoxide (DMSO), and the maximum final DMSO concentration in the assays was 1.3%.
Supplementary Figure 3. The fitting curve for IC50 calculation of the compounds on Table 1 (Compounds 1, 2, 3, 4, and 4MCHA correspond to (a), (b), (c), (d) and (e), respectively). The vertical line and horizontal axis's represent inhibition% for TcSpdSyn and compound concentration. The closed circles show the inhibition% measured at each dose. The error bars indicate the standard error of the inhibition% measured at each dose. For curve fitting, the following four paramter logoistic (4PL) model1 is used. The paramter […]

TcSpdSyn [2] = target: T1, TcSpdSyn; design: method as in PMID 26327378; conditions: cited from earlier work

| Structure (SMILES) | IC50 (TcSpdSyn [1]) [µM] | Hill (4PL curve fitting parameter) (TcSpdSyn [1]) | Max (4PL curve fitting parameter, inhibition%) (TcSpdSyn [1]) | min (4PL curve fitting parameter, inhibition%) (TcSpdSyn [1]) | LoggedX50 (4PL curve fitting parameter) (TcSpdSyn [1]) | IC50 (TcSpdSyn [1]; read-out: IC50 for TcSpdSyn) [µM] | IC50 (TcSpdSyn [2]) [µM] |
| --- | --- | --- | --- | --- | --- | --- | --- |
| NCCc1ccccc1F [Compound 1, 2-(2-Fluorophenyl)ethanamine] | 124 | 0.90 | 100.00 | 0.00 | 2.09 |  |  |
| O=c1nc(Nc2nc(O)nc(O)n2)sc2ccccc12 [Compound 2, 2-[(4,6-dihydroxy-1,3,5-triazin-2-yl)amino]-4H-1,3-benzothiazin-4-one] |  | 1.27 | 100.00 | 0.00 | 1.46 | 28 |  |
| CCOc1ccc2c(c1)c(CCN)cn2CC [Compound 3, 2-(5-Ethoxy-1-ethyl-1H-indol-3-yl)ethanamine] | 113 | 1.44 | 100.00 | 0.00 | 2.05 |  |  |
| NCCc1ccc(O)c(O)c1 [Compound 4, 4-(2-Aminoethyl)-1,2-benzenediol] |  | 1.03 | 100.00 | 0.00 | 1.82 | 66 |  |
| C[C@H]1CC[C@H](N)CC1 [Compound 4MCHA, trans-4-methylcyclohexylamine, reference compound] |  | 1.01 | 100.00 | 0.00 | 0.29 | 1.9 | 1.7 |
